According to patent US9216999B2, “Substituted pyrrolo[2,3-h][1,6]naphthyridines and compositions thereof as JAK inhibitors” (priority 2011, dated 2015):
Like-named read-outs stand apart in the source and are kept apart here.

Experiments:
Assay type in all cases: biochemical
JAK3 = JAK3 (Homo sapiens (Human), UniProt P52333); experiment: Enzyme assay (Assay Example^a 1), JAK3
Tyk2 = Tyk2 (Homo sapiens (Human), UniProt P29597); experiment: Enzyme assay (Assay Example^a 1), Tyk2; conditions: ATP 100 μM
Chain of Tyk2 (P29597 whole entry): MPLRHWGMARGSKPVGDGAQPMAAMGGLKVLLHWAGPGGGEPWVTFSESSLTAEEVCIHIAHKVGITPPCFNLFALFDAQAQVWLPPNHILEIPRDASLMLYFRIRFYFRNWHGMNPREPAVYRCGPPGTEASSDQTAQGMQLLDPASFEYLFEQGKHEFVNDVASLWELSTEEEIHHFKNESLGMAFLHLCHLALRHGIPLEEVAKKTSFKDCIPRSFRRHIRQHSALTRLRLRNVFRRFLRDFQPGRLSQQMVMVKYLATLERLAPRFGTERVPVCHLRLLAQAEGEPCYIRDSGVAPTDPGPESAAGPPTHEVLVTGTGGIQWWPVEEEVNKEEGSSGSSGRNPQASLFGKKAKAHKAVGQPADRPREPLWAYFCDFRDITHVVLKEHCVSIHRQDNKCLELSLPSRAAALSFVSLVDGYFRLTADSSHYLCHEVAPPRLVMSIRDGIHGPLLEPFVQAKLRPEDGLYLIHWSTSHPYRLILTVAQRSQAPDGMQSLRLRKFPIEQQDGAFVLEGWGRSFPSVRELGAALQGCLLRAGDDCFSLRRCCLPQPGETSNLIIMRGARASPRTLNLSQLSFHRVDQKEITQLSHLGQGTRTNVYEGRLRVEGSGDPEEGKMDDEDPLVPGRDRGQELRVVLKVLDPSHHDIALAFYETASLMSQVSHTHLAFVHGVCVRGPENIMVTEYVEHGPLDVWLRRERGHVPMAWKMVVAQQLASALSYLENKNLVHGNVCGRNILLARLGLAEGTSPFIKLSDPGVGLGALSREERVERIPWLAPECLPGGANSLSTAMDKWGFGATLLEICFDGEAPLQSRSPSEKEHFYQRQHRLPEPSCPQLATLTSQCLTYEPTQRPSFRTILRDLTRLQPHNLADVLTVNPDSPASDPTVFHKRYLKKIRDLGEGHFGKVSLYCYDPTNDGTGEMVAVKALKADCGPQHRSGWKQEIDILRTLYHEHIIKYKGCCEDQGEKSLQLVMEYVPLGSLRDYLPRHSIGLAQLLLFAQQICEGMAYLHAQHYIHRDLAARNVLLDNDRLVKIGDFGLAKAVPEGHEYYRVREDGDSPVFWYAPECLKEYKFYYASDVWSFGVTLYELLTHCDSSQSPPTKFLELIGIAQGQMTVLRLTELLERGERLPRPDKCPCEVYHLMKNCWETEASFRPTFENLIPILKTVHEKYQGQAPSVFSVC

JAK1 = JAK1 (Homo sapiens (Human), UniProt P23458); experiment: Enzyme assay (Assay Example^a 1), JAK1; conditions: ATP 100 μM
JAK2 = JAK2 (Homo sapiens (Human), UniProt O60674); experiment: Enzyme assay (Assay Example^a 1), JAK2

Chain of JAK3 (P52333 whole entry): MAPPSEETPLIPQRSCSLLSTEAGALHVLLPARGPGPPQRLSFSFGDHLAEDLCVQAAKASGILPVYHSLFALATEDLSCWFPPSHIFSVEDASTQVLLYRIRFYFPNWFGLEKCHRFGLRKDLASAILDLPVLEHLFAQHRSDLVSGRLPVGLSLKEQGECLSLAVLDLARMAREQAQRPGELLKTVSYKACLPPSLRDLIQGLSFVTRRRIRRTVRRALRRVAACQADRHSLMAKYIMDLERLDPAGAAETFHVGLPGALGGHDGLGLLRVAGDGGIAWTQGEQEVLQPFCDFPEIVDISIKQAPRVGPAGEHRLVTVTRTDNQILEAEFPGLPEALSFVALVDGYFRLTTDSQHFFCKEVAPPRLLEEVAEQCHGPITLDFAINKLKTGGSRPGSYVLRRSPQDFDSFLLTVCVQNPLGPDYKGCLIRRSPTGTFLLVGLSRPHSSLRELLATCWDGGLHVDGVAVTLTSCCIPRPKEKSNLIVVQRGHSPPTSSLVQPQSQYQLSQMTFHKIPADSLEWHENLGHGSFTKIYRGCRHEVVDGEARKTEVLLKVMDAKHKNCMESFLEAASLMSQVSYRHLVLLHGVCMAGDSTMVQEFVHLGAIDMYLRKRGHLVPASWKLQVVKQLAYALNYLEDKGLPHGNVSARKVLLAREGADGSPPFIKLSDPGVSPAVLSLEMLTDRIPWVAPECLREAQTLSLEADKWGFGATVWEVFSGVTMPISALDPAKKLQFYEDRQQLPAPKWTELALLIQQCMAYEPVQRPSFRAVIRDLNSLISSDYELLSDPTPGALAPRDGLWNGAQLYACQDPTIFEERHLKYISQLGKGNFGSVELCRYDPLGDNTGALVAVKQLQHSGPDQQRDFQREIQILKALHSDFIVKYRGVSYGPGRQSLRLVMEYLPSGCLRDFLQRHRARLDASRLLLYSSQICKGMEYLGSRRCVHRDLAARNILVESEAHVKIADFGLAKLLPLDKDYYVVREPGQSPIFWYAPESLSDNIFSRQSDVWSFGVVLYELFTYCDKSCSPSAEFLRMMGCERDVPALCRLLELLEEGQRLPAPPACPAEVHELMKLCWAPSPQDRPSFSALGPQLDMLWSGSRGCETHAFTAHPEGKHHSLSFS

Clc1ccc(CN2CCC(c3nnn4cnc5[nH]ccc5c34)CC2)cn1 [compound 214, 1-{1-[(6-chloropyridin-3-yl)methyl]piperidin-4-yl}-7H-pyrrolo[3,2-e][1,2,3]triazolo[1,5-c]pyrimidine]
IC50 (JAK3; ATP 100 μM): 0.04 µM
IC50 (Tyk2): 0.29 µM
IC50 (JAK1): 0.0026 µM
IC50 (JAK2; ATP 100 μM): 0.013 µM

N#CCNC(=O)C[C@H]1CC[C@@H](c2nnn3cnc4[nH]ccc4c23)CC1 [443a, 2-[cis-4-(7H-Pyrrolo[3,2-e][1,2,3]triazolo[1,5-c]pyrimidin-1-yl)cyclohexyl]-N-(cyanomethyl)acetamide]
IC50 (JAK3; ATP 100 μM): 0.73 µM
IC50 (Tyk2): 0.54 µM
IC50 (JAK1): 0.026 µM
IC50 (JAK2; ATP 100 μM): 0.06 µM

Cc1ccccc1-c1nnn2cnc3[nH]ccc3c12 [compound 5]
IC50 (JAK3; ATP 100 μM): 0.26 µM
IC50 (Tyk2): 0.13 µM
IC50 (JAK1): 0.02 µM
IC50 (JAK2; ATP 100 μM): 0.13 µM

CCOC(=O)C=C1CCC(c2nnn3cnc4[nH]ccc4c23)CC1 (stereo not drawn) [compound 436, ethyl 2-[4-(7H-pyrrolo[3,2-e][1,2,3]triazolo[1,5-c]pyrimidin-1-yl)cyclohexylidene]acetate]
IC50 (JAK3; ATP 100 μM): > 1 µM
IC50 (Tyk2): > 1 µM
IC50 (JAK1): 0.035 µM
IC50 (JAK2; ATP 100 μM): 0.17 µM

Fc1cc(Cl)ccc1CN1CCC(c2nnn3cnc4[nH]ccc4c23)CC1 [compound 158]
IC50 (JAK3; ATP 100 μM, Table^a 154): 0.059 µM
IC50 (Tyk2; Table^a 154): 0.097 µM
IC50 (JAK1; Table^a 154): 0.0007 µM
IC50 (JAK2; ATP 100 μM, Table^a 154): 0.0044 µM

N#Cc1ccc(NC[C@H]2CC[C@H](c3nnn4cnc5[nH]ccc5c34)CC2)cc1C#N [compound 262, 4-({[trans-4-(7H-pyrrolo[3,2-e][1,2,3]triazolo[1,5-c]pyrimidin-1-yl)cyclohexyl]methyl}amino)phthalonitrile]
IC50 (JAK3; ATP 100 μM): 0.59 µM
IC50 (Tyk2): 0.91 µM
IC50 (JAK1): 0.0047 µM
IC50 (JAK2; ATP 100 μM): 0.045 µM

OCCNC[C@H]1CC[C@H](c2nnn3cnc4[nH]ccc4c23)CC1 [compound 272, 2-({[trans-4-(7H-pyrrolo[3,2-e][1,2,3]triazolo[1,5-c]pyrimidin-1-yl)cyclohexyl]methyl}amino)ethanol]
IC50 (JAK3; ATP 100 μM): 0.43 µM
IC50 (Tyk2): 0.094 µM
IC50 (JAK1): 0.0035 µM
IC50 (JAK2; ATP 100 μM): 0.053 µM

Clc1cnccc1CN1CCC(c2nnn3cnc4[nH]ccc4c23)CC1 [compound 163, 1-{1-[(3-chloropyridin-4-yl)methyl]piperidin-4-yl}-7H-pyrrolo[3,2-e][1,2,3]triazolo[1,5-c]pyrimidine]
IC50 (JAK3; ATP 100 μM, Table^a 154): 0.41 µM
IC50 (Tyk2; Table^a 154): 0.31 µM
IC50 (JAK1; Table^a 154): 0.01 µM
IC50 (JAK2; ATP 100 μM, Table^a 154): 0.034 µM

NC[C@H]1CC[C@H](c2nnn3cnc4[nH]ccc4c23)CC1 [compound 371, [trans-4-(7H-Pyrrolo[3,2-e][1,2,3]triazolo[1,5-c]pyrimidin-1-yl)cyclohexyl]methanamine]
IC50 (JAK3; ATP 100 μM): 0.39 µM
IC50 (Tyk2): 0.18 µM
IC50 (JAK1): 0.0033 µM
IC50 (JAK2; ATP 100 μM): 0.035 µM

c1ccc(CNC[C@H]2CC[C@H](c3nnn4cnc5[nH]ccc5c34)CC2)cc1 [compound 193, 1-[trans-4-(7H-pyrrolo[3,2-e][1,2,3]triazolo[1,5-c]pyrimidin-1-yl)cyclohexyl]-N-benzylmethanamine]
IC50 (JAK3; ATP 100 μM, Table^a 154): 0.28 µM
IC50 (Tyk2; Table^a 154): 0.0055 µM
IC50 (JAK1; Table^a 154): 0.0053 µM
IC50 (JAK2; ATP 100 μM, Table^a 154): 0.041 µM

N#CCCN[C@H]1CC[C@H](c2nnn3cnc4[nH]ccc4c23)CC1 [394b, 3-{[trans-4-(7H-pyrrolo[3,2-e][1,2,3]triazolo[1,5-c]pyrimidin-1-yl)cyclohexyl]amino}propanenitrile]
IC50 (JAK3; ATP 100 μM): > 1 µM
IC50 (Tyk2): > 1 µM
IC50 (JAK1): 0.015 µM
IC50 (JAK2; ATP 100 μM): 0.09 µM

O=C(O)C1CN(C[C@H]2CC[C@H](c3nnn4cnc5[nH]ccc5c34)CC2)C1 [compound 278, 1-{[trans-4-(7H-pyrrolo[3,2-e][1,2,3]triazolo[1,5-c]pyrimidin-1-yl)cyclohexyl]methyl}azetidine-3-carboxylic acid]
IC50 (JAK3; ATP 100 μM): 0.45 µM
IC50 (Tyk2): 0.4 µM
IC50 (JAK1): 0.0043 µM
IC50 (JAK2; ATP 100 μM): 0.034 µM

FC(F)(Br)CNC[C@H]1CC[C@H](c2nnn3cnc4[nH]ccc4c23)CC1 [compound 269, N-{[trans-4-(7H-pyrrolo[3,2-e][1,2,3]triazolo[1,5-c]pyrimidin-1-yl)cyclohexyl]methyl}-2-bromo-2,2-difluoroethanamine]
IC50 (JAK3): 0.057 µM
IC50 (Tyk2): 0.1 µM
IC50 (JAK1): 0.0013 µM
IC50 (JAK2; ATP 100 μM): 0.012 µM

c1cc2c(ncn3nnc([C@H]4CC[C@H](CNC5CCC5)CC4)c23)[nH]1 [compound 283, N-{[trans-4-(7H-pyrrolo[3,2-e][1,2,3]triazolo[1,5-c]pyrimidin-1-yl)cyclohexyl]methyl}cyclobutanamine]
IC50 (JAK3; ATP 100 μM): 0.9 µM
IC50 (Tyk2): 0.23 µM
IC50 (JAK1): 0.014 µM
IC50 (JAK2; ATP 100 μM): 0.11 µM

CCN(C)C1CN(C[C@H]2CC[C@H](c3nnn4cnc5[nH]ccc5c34)CC2)C1 [compound 424, 1-{[trans-4-(7H-pyrrolo[3,2-e][1,2,3]triazolo[1,5-c]pyrimidin-1-yl)cyclohexyl]methyl}-N-ethyl-N-methylazetidin-3-amine]
IC50 (JAK3; ATP 100 μM): > 1 µM
IC50 (Tyk2): > 1 µM
IC50 (JAK1): 0.044 µM
IC50 (JAK2; ATP 100 μM): 0.48 µM

c1cc2c(ncn3nnc(C4CCN(Cc5cnc(N6CCOCC6)s5)CC4)c23)[nH]1 [compound 234, 4-(5-{[4-(7H-pyrrolo[3,2-e][1,2,3]triazolo[1,5-c]pyrimidin-1-yl)piperidin-1-yl]methyl}thiazol-2-yl)morpholine]
IC50 (JAK3; ATP 100 μM): > 1 µM
IC50 (Tyk2): > 1 µM
IC50 (JAK1): 0.36 µM
IC50 (JAK2; ATP 100 μM): 0.88 µM

FC(F)(F)c1ccc(CCN2CCC(c3nnn4cnc5[nH]ccc5c34)CC2)cc1 [compound 42]
IC50 (JAK3; ATP 100 μM, Table^a 154): > 1 µM
IC50 (Tyk2; Table^a 154): > 1 µM
IC50 (JAK1; Table^a 154): 0.082 µM
IC50 (JAK2; ATP 100 μM, Table^a 154): 0.41 µM

Fc1cc(C(F)(F)F)ccc1CN1CCC(c2nnn3cnc4[nH]ccc4c23)CC1 [compound 157]
IC50 (JAK3; ATP 100 μM, Table^a 154): 0.24 µM
IC50 (Tyk2; Table^a 154): 0.31 µM
IC50 (JAK1; Table^a 154): 0.002 µM
IC50 (JAK2; ATP 100 μM, Table^a 154): 0.02 µM

N#Cc1cc(NC[C@H]2CC[C@H](c3nnn4cnc5[nH]ccc5c34)CC2)ccc1F [compound 252, 5-({[trans-4-(7H-pyrrolo[3,2-e][1,2,3]triazolo[1,5-c]pyrimidin-1-yl)cyclohexyl]methyl}amino)-2-fluorobenzonitrile]
IC50 (JAK3; ATP 100 μM): > 1 µM
IC50 (Tyk2): > 1 µM
IC50 (JAK1): 0.017 µM
IC50 (JAK2; ATP 100 μM): 0.06 µM

[N-]=[N+]=NC[C@H]1CC[C@H](c2nnn3cnc4[nH]ccc4c23)CC1 [compound 369, 1-[trans-4-(Azidomethyl)cyclohexyl]-7H-pyrrolo[3,2-e][1,2,3]triazolo[1,5-c]pyrimidine]
IC50 (JAK3; ATP 100 μM): 0.048 µM
IC50 (Tyk2): 0.0092 µM
IC50 (JAK1): 0.00033 µM
IC50 (JAK2; ATP 100 μM): 0.0017 µM

c1cc2c(ncn3nnc([C@H]4CC[C@H](CN5CCC(N6CCOCC6)CC5)CC4)c23)[nH]1 [compound 334, 4-(1-{[trans-4-(7H-pyrrolo[3,2-e][1,2,3]triazolo[1,5-c]pyrimidin-1-yl)cyclohexyl]methyl}piperidin-4-yl)morpholine]
IC50 (JAK3; ATP 100 μM): > 1 µM
IC50 (Tyk2): > 1 µM
IC50 (JAK1): 0.064 µM
IC50 (JAK2; ATP 100 μM): > 1 µM

O=C(N[C@H]1CC[C@H](c2nnn3cnc4[nH]ccc4c23)CC1)OCc1ccccc1 [compound 60]
IC50 (JAK3; ATP 100 μM, Table^a 154): > 1 µM
IC50 (Tyk2; Table^a 154): 4.2 µM
IC50 (JAK1; Table^a 154): 0.0051 µM
IC50 (JAK2): 0.032 µM

c1cc2c(ncn3nnc([C@H]4CC[C@@H](NN5CCOCC5)CC4)c23)[nH]1 [139a]
IC50 (JAK3; ATP 100 μM, Table^a 154): 0.43 µM
IC50 (Tyk2; Table^a 154): > 1 µM
IC50 (JAK1; Table^a 154): 0.26 µM
IC50 (JAK2; ATP 100 μM, Table^a 154): 0.4 µM

COc1ccc(C(O)(CN[C@H]2CC[C@H](c3nnn4cnc5[nH]ccc5c34)CC2)C(F)(F)F)cc1 (stereo partly drawn) [388b, 3-{[trans-4-(7H-pyrrolo[3,2-e][1,2,3]triazolo[1,5-c]pyrimidin-1-yl)cyclohexyl]amino}-1,1,1-trifluoro-2-(4-methoxyphenyl)propan-2-ol]
IC50 (JAK3; ATP 100 μM): 0.26 µM
IC50 (Tyk2): 0.21 µM
IC50 (JAK1): 0.0012 µM
IC50 (JAK2; ATP 100 μM): 0.025 µM

O=S(=O)(C[C@H]1CC[C@H](c2nnn3cnc4[nH]ccc4c23)CC1)NC1CC1 [compound 417, 1-[trans-4-(7H-Pyrrolo[3,2-e][1,2,3]triazolo[1,5-c]pyrimidin-1-yl)cyclohexyl]-N-cyclopropylmethanesulfonamide]
IC50 (JAK3; ATP 100 μM): 0.38 µM
IC50 (Tyk2): 0.42 µM
IC50 (JAK1): 0.0078 µM
IC50 (JAK2; ATP 100 μM): 0.026 µM

c1cc2c(ncn3nnc([C@H]4CC[C@H](CNCC5CC5)CC4)c23)[nH]1 [compound 285, 1-[trans-4-(7H-pyrrolo[3,2-e][1,2,3]triazolo[1,5-c]pyrimidin-1-yl)cyclohexyl]-N-(cyclopropylmethyl)methanamine]
IC50 (JAK3; ATP 100 μM): 0.61 µM
IC50 (Tyk2): 0.068 µM
IC50 (JAK1): 0.0091 µM
IC50 (JAK2; ATP 100 μM): 0.12 µM

N#CCCN(C[C@H]1CC[C@H](c2nnn3cnc4[nH]ccc4c23)CC1)c1ccccc1 [compound 300, 3-({[trans-4-(7H-pyrrolo[3,2-e][1,2,3]triazolo[1,5-c]pyrimidin-1-yl)cyclohexyl]methyl}(phenyl)amino)propanenitrile]
IC50 (JAK3; ATP 100 μM): 0.75 µM
IC50 (Tyk2): > 1 µM
IC50 (JAK1): 0.025 µM
IC50 (JAK2; ATP 100 μM): 0.059 µM

O=C(NCC(F)(F)F)C1CN(C[C@H]2CC[C@H](c3nnn4cnc5[nH]ccc5c34)CC2)C1 [compound 426, 1-{[trans-4-(7H-Pyrrolo[3,2-e][1,2,3]triazolo[1,5-c]pyrimidin-1-yl)cyclohexyl]methyl}-N-(2,2,2-trifluoroethyl)azetidine-3-carboxamide]
IC50 (JAK3; ATP 100 μM): 0.87 µM
IC50 (Tyk2): 0.58 µM
IC50 (JAK1): 0.011 µM
IC50 (JAK2; ATP 100 μM): 0.062 µM

c1cc2c(ncn3nnc([C@H]4CC[C@H](NN5CCOCC5)CC4)c23)[nH]1 [139b]
IC50 (JAK3; ATP 100 μM, Table^a 154): > 1 µM
IC50 (Tyk2; Table^a 154): 0.5 µM
IC50 (JAK1; Table^a 154): 0.021 µM
IC50 (JAK2; ATP 100 μM, Table^a 154): 0.076 µM

CC(C)(C)NC[C@H]1CC[C@H](c2nnn3cnc4[nH]ccc4c23)CC1 [compound 332, N-{[trans-4-(7H-pyrrolo[3,2-e][1,2,3]triazolo[1,5-c]pyrimidin-1-yl)cyclohexyl]methyl}-2-methylpropan-2-amine]
IC50 (JAK3; ATP 100 μM): > 1 µM
IC50 (Tyk2): 0.49 µM
IC50 (JAK1): 0.012 µM
IC50 (JAK2; ATP 100 μM): 0.045 µM
